Experimental data taken from patent US7981878B2, “Tumor treatment with gliotoxin derivatives” (priority 2005, dated 2011).

Tests used:
[1] = test system: PBMCs from healthy donors; experiment: Apoptosis of control PBMCs from healthy donors by FACS; format: cell-based, human; conditions: 0.2 μM gliotoxin, 4 hours
Method: FIG. 4: Gliotoxin induces apoptosis in unstimulated as well as in TPA-stimulated B-CLL cells within 4 hours. Normal PBMCs (peripheral blood mononuclear cells) from healthy donors show a markedly lower Notch2 activity. Although gliotoxin inhibits Notch2 also in normal, TPA-stimulated cells, the gliotoxin-caused apoptosis rate is markedly lower in normal cells as compared to B-CLL cells. Non-stimulated and TPA stimulated PBMC's from healthy donors (HD) are less sensitive to 0.2 μM Gliotoxin despite a basal Notch2 activity. PBMC's and CLL cells were incubated with 0.2 μM Gliotoxin with or without TPA for 4 hours and the Notch2 activity as well as the percentage of apoptotic cells were determined by EMSA and FACS analysis, respectively.
After 4 hours of gliotoxin treatment, massive signs of the starting apoptosis (AnnexinV+) could already be recognized in B-CLL cells. This effect was increased by TPA (a phorbol ester which stimulates the activation of lymphocytes).

Jurkat (T-ALL) = experiment: Apoptosis FACS in leukaemia cell line Jurkat; format: cell-based; conditions: 0.2 μM gliotoxin, 24 h
Method: FIG. 7: (A) The apoptotic activity of gliotoxin on further B-CLL patient samples (CLL4-CLL8) is illustrated. The (non-Notch2-associated) leukaemia cell lines (or the leukaemia cell lines not characterised by ligand-independent Notch2 fragments) Jurkat (T-ALL), SH1 (hairy cell carcinoma), RL-7 and K562 (CML) are resistant to a treatment with 0.2 μM (corresponding to 60 ng/ml) of gliotoxin. Cells were incubated for 24 h+/−gliotoxin, and the percentage of apoptotic cells (probidium-iodide+/annexinV+) was determined by means of FACS analysis. In none of the 4 non-Notch2-associated cell lines indicated, the application of 0.2 μM of gliotoxin led to a significant induction of apoptosis within 24 hours. The cytotoxic effect of Gliotoxin correlates with the Notch2 activity in leukemias. (B) Corresponding EMSA showing the activity of Notch2 in B-CLL cells and in leukemic cell lines (Jurkat, SH1, RL7, and K562).

[2] = test system: Huh7 (hepatocellular carcinoma); experiment: Cell count analysis Huh7; format: cell-based, human; conditions: Huh7, 200 nM gliotoxin, 72 h
Method: (§1) FIG. 8 a-d: Effects of gliotoxin on cell counts of various human tumour cell lines in vitro. Cell counts of a) hepatocellular carcinoma cell lines HepG2, Huh7, SNU398, Hep3b, HeLa (cervix) and the cholangiocarcinoma cell line NEC as well as b) the pancreatic cancer cell line Panc-1 and the melanoma cell lines d) MelJuso, Meljuso-Bcl-2 (+) and 607B after 72 h treatment with 200 nM gliotoxin; c-d) Cell count dose range experiments with c) pancreatic carcinoma cell lines Panc-1 and MiaPaCa as well as melanoma cell lines MelJuso, 518A2 and 607B using 25, 50 100 and 200 nM gliotoxin for 24 h. All data are given relative to control ±standard deviation.
(§2) Tumour cells were seeded at a density of 10,000 cells/well in 24-well plates. 24 h after seeding, medium containing gliotoxin was added to yield desired concentrations of gliotoxin. At time points indicated, culture medium was removed by suction. Adherent cells were washed with DPBS (Cambrex, Verviers, Belgium) and incubated with trypsin (Gibco) at 37° C. Detached cells were transferred to test tubes containing Cellpack isotonic fluid (Sysmex Europe, Bornbarch, Germany) and counted with a Coulter Z1 electronic cell counter (Beckman Coulter, Bedford, UK).

[3] = test system: Hep3B (hepatocellular carcinoma); experiment: Cell count analysis Hep3B; format: cell-based, human; conditions: 200 nM gliotoxin, 72 h
Method: as §1, §2

[4] = test system: SNU398 (hepatocellular carcinoma); experiment: Cell count analysis SNU398; format: cell-based, human
Method: as §1, §2

[5] = test system: Meljuso-Bcl-2 (+) (Bcl-2 over expressing melanoma cell line); experiment: Cell count analysis Meljuso-Bcl-2 (+); format: cell-based, human
Method: as §1, §2

Meljuso-wt (melanoma) = experiment: Cell count analysis Meljuso-wt; format: cell-based, human
Method: as §1, §2

[6] = test system: Panc-1 (pancreatic cancer); experiment: Apoptosis flow cytometry (Annexin V / 7-AAD) Panc-1; format: cell-based, human; conditions: Panc-1, 200 nM gliotoxin, 24 h
Method: (§3) FIG. 10 a-b: Effects of gliotoxin on Notch2 regulation and apoptosis. The melanoma cell line 518A2 (A) and the pancreatic cancer cell line Panc-1 (B) were treated with 200 nM gliotoxin or vehicle control for 24 h Notch2 activity was analysed by band shift assay. Apoptosis was measured as annexin V and 7-AAD double positivity by FACS. Data are given as percentage of apoptotic cells ±standard deviation.
Tumour cells were seeded at a density of 50,000 cells/well in 6 well plates. 24 h after seeding, medium containing gliotoxin was added to yield desired concentrations of gliotoxin. After further 24 h cells were harvested, counted and washed twice with PBS. Then, 100,000 cells were resuspended in 100 μl binding buffer and stained with Annexin V-PE and 7-AAD (both Becton Dickinson, N.J., USA) according to manufacturer's recommendations. After 20 minutes incubation time at room temperature in the dark, 400 μl binding buffer was added and immediately analyzed on a FACScalibur flow cytometer using CellQuest software (both Becton Dickinson, N.J., USA)

Notch2 = Notch2 activity band shift assay in Panc-1; format: cell-based, human; conditions: Panc-1, 200 nM gliotoxin, 24 h
Method: as §3
500,000 cells were seeded on 12 cm^2 plates for 24 h and then treated with 200 nM gliotoxin. At the time points as indicated cells were harvested and immediately frozen at −80° C. The band shift assay was performed as described for B-CLL.

[7] = mice and rats; cited from earlier work
[8] = test system: B1 B-cells (LPS responder); conditions: mice, single administration of 100 μg of gliotoxin; cited from earlier work
[9] = test system: U937 (macrophage cell line); conditions: cited from earlier work
HCT-15 = conditions: cited from earlier work

Compound: CN1C(=O)[C@]23CC4=CC=C[C@H](O)[C@H]4N2C(=O)[C@@]1(CO)SS3 [gliotoxin, [3R-(3α,5aβ,6β,10aα)]-2,3,5a,6-tetrahydro-6-hydroxy-3-(hydroxymethyl)-2-methyl-10H-3,10a-epi-dithiopyrazino[1,2-a]indol-1,4-dion]
- apoptosis ([1]; TPA-stimulated PBMCs): 17%
- apoptosis ([1]; non-stimulated PBMCs): 20%
- induction of apoptosis (probidium-iodide+/annexinV+) (Jurkat (T-ALL)): resistant
- mean reduction of cell numbers compared to vehicle treated controls [2]: 31%
- mean reduction of cell numbers compared to vehicle treated controls [3]: 88%
- mean reduction of cell numbers compared to vehicle treated controls ([4]; SNU398, 200 nM gliotoxin, 72 h): 96%
- response ([4]; SNU-398, 0.2 μM (60 ng/ml)): ~100%
- response ([5]; MelJuso +BCL2, 0.2 μM (60 ng/ml)): ~100%
- cell count decrease ([5]; Meljuso-Bcl-2 (+), 200 nM gliotoxin, 72 h): 94%
- response (Meljuso-wt (melanoma); MelJuso (−BCL2), 0.2 μM (60 ng/ml)): ~100%
- cytotoxicity in dose range experiment (cell count) (Meljuso-wt (melanoma); Meljuso, 25, 50, 100 and 200 nM, 24 h): clear dose dependent cytotoxicity
- effect on cell count (Meljuso-wt (melanoma); Meljuso-wt, 200 nM gliotoxin, 72 h): very effective
- apoptotic cells (annexin V and 7-AAD double positive) [6]: 47%
- Notch2 activity (band shift assay) (Notch2): only partly inhibited
- LD50 [7]: 25 to 50 mg/kg
- effect on B1 B-cells (LPS responder) [8]: complete loss of B1 B-cells
- IC50 with regard to cell viability [9]: 14 ng/mL
- IC50 with regard to cell viability (HCT-15): 39 ng/mL
